{"source": "paper PMC9221442", "about": "“Design, Synthesis and Characterization of [G10a]-Temporin SHa Dendrimers as Dual Inhibitors of Cancer and Pathogenic Microbes” (Biomolecules, 2022)", "key": {"[1]": {"system": "Acinetobacter baumannii (DSM 30007)", "assay_type": "cell-based", "method": "(§1) Experiments were performed in triplicate (n = 3)."}, "[2]": {"system": "Bacillus subtilis (ATCC 6633)", "assay_type": "cell-based", "method": "as §1"}, "[3]": {"system": "Enterobacter cloacae (DSM 30054)", "assay_type": "cell-based", "method": "as §1"}, "[4]": {"system": "Enterococcus faecalis (DSM 2570)", "assay_type": "cell-based", "method": "as §1"}, "[5]": {"system": "Enterococcus faecium (DSM 20477)", "assay_type": "cell-based", "conditions": "DSM 20477", "method": "as §1"}, "[6]": {"system": "Escherichia coli (ATCC 8739)", "assay_type": "cell-based", "method": "as §1"}, "[7]": {"system": "Helicobacter pylori (ATCC 43504)", "assay_type": "cell-based", "method": "as §1"}, "[8]": {"system": "Klebsiella pneumoniae (DSM 26371)", "assay_type": "cell-based", "method": "as §1"}, "[9]": {"system": "Pseudomonas aeruginosa (ATCC 9027)", "assay_type": "cell-based", "method": "as §1"}, "[10]": {"system": "Staphylococcus aureus (ATCC 6538)", "assay_type": "cell-based", "method": "as §1"}, "[11]": {"system": "breast cancer cells MCF-7", "assay_type": "cell-based, human", "conditions": "48 h", "method": "(§2) The antiproliferative effect of the peptides was determined by using human cells, as previously described. Human cancer cells used in this experiment were ovarian cancer cells A2780 (obtained from ECACC), breast cancer cells MCF-7 (obtained from ATCC), liver cancer cells HepG2 (obtained from ATCC), lung cancer cells A549 (obtained from ATCC), pancreatic cancer cells MiaPaCa (obtained from ATCC), prostate cancer cells PC-3 (obtained from ATCC), and skin cancer cells MNT-1 (generous gift from the National Institute of Health (NIH). Normal human cells used were human lung fibroblasts IMR-90 (obtained from ATCC). All cells were cultured in DMEM which was supplemented with 10% fetal bovine serum (FBS), 1% L-glutamine, and 1% antibiotics (all from Invitrogen) at 37 °C in 5% CO2 incubator. For cytotoxicity assay, cells were maintained in 25 cm^2 flasks. Cells were separated from flasks using trypsin-EDTA solution (from Thermofisher) and counted using Malassez chamber and diluted in culture medium before seeding into 96-well cell-culture plates (Greiner bio-one, Paris, France) at approximately 3000 cells/well. Cells were then treated with increasing concentration of peptides diluted in culture medium (1:2 serial dilution, from 100 µM to 0 µM). After 48 h, medium was aspirated and number of viable cells was colorimetrically determined using resazurin-based assay following manufacturer’s instructions. The fluorescence intensity was measured using microplate reader (Biotek, Santa Clara, CA, USA, Synergy Mx) with an excitation wavelength of 530 nm and an emission wavelength of 590 nm. The fluorescence values were normalized by the controls (untreated cells) and expressed as percent of proliferation. The IC50 values of peptides (i.e., the concentrations causing 50% inhibition of cell proliferation) were determined using GraphPad® Prism 7 software."}, "liver cancer cells HepG2": {"system": "liver cancer cells HepG2", "assay_type": "cell-based, human", "conditions": "48 h", "method": "as §2"}, "lung cancer cells A549": {"system": "lung cancer cells A549", "assay_type": "cell-based, human", "conditions": "48 h", "method": "as §2"}, "[12]": {"system": "ovarian cancer cells A2780", "assay_type": "cell-based, human", "conditions": "48 h", "method": "as §2"}, "[13]": {"system": "pancreatic cancer cells MiaPaCa", "assay_type": "cell-based, human", "conditions": "48 h", "method": "as §2"}, "[14]": {"system": "prostate cancer cells PC-3", "assay_type": "cell-based, human", "conditions": "48 h", "method": "as §2"}, "skin cancer cells MNT-1": {"system": "skin cancer cells MNT-1", "assay_type": "cell-based, human", "conditions": "48 h", "method": "as §2"}, "human cancer cells": {"system": "human cancer cells", "assay_type": "cell-based", "conditions": "48 h", "method": "as §2"}, "[15]": {"system": "human lung fibroblasts IMR-90", "assay_type": "cell-based", "conditions": "48 h", "method": "as §2"}, "Hemolysis assay": {"experiment": "Hemolysis assay", "assay_type": "cell-based, human", "conditions": "human", "method": "(§3) The ability of dendrimers and peptides to cause hemolysis was evaluated using human whole red blood cells. Briefly, fresh human erythrocytes (obtained from Divbio Science Europe, NL) were washed 3 times by centrifugation at 800× g for 5 min with sterile phosphate buffer saline (PBS, pH 7.4). The washed erythrocytes were resuspended in complete culture media (DMEM supplemented with 10% FBS) to a final concentration of 8%. Human erythrocytes were then added into sterile 96-well microplates (150 µL per well) and were exposed to increasing concentrations of peptides or dendrimers. After 1 h incubation at 37 °C, plates were centrifuged at 800× g for 5 min. Then, 100 µL of supernatant were carefully transferred to a new 96-well microplate and absorbance was measured at 450 nm using microplate reader. Triton-X100 at 0.1% (v/v) was used as positive control giving 100% hemolysis. The HC50 values of peptides and dendrimers (i.e., the concentration of compound causing 50% of hemolysis) were calculated using GraphPad® Prism 7 software."}, "human red blood cells": {"system": "human red blood cells", "experiment": "Hemolysis assay", "assay_type": "cell-based", "method": "as §3"}, "[16]": {"experiment": "Stability study at different temperatures (absorbance spectrum)", "conditions": "room temperature, 35 °C, 40 °C, 50 °C and 60 °C", "method": "(§4) The stability of dendrimers at different pH values and temperatures was also determined. For this, a 510 model digital pH meter (Oakton Eutech) with working electrode of glass material and a Ag/AgCl as reference electrode was used for the pH record. Dilute solutions of HCl and NaOH were added to adjust the pH of the solution from 2 to 12. Similarly, stability of monomer [G10a]-SHa and its three dendrimers was checked by heating the peptide dendrimers on different temperature ranges, i.e., room temperature, 35 °C, 40 °C, 50 °C and 60 °C."}, "[17]": {"experiment": "Stability study at different pH", "conditions": "pH 2 to pH 14", "method": "as §4, with “Dilute solutions of HCl and NaOH were added to adjust the pH of the solution from 2 to 12.” left out"}, "[18]": {"experiment": "Dynamic light scattering (zetasizer)", "assay_type": "physicochemical", "method": "The dendrimeric solutions of peptides were transferred into transparent cuvette with care to remove bubble formation. The sample was then transferred to the cell holder and study was performed at 90° scattering angle at room temperature. The standard viscosity and refractive index were kept constant and kept at 1.0, 1.33 and 80.4 mPa, respectively."}, "H. pylori": {"system": "H. pylori", "design": "method as in PMID 31614561", "conditions": "cited from earlier work"}, "[19]": {"system": "methicillin-resistant Staphylococcus aureus (MRSA)", "design": "method as in PMID 35092568", "conditions": "cited from earlier work"}, "[20]": {"conditions": "cited from earlier work"}}, "note": "“Also recorded” adds a separate entry of the source. Like-named read-outs stand apart in the source and are kept apart here. Where a SMILES comes first, the peptide text is derived from it."}
{"compound": "CC[C@H](C)[C@H](NC(=O)CNC(=O)[C@H](CO)NC(=O)[C@H](CC(C)C)NC(=O)[C@@H](N)Cc1ccccc1)C(=O)N[C@H](C(=O)NCC(=O)N[C@@H](CCSC)C(=O)N[C@@H](CC(C)C)C(=O)N[C@H](C)C(=O)N[C@@H](CCCCN)C(=O)N[C@@H](CC(C)C)C(=O)N[C@@H](Cc1ccccc1)C(N)=O)C(C)C", "note": "[[G10a]-SHa, H-Phe^1-Leu^2-Ser^3-Gly^4-Ile^5-Val^6-Gly^7-Met^8-Leu^9-D-Ala^10-Lys^11-Leu^12-Phe^13-NH2] (HELM PEPTIDE1{F.L.S.G.I.V.G.M.L.[dA].K.L.F.[am]}$$$$V2.0)", "values": [{"measurement": "minimal inhibitory concentration (MIC)", "setting": "[1]; A. baumannii (DSM 30007), 18–24 h, aerobic", "result": 12.5, "unit": "µM"}, {"measurement": "minimal inhibitory concentration (MIC)", "setting": "[1]; DSM 30007", "result": 12.5, "unit": "µM"}, {"measurement": "minimal inhibitory concentration (MIC)", "setting": "[2]; ATCC 6633", "result": 3.12, "unit": "µM"}, {"measurement": "minimal inhibitory concentration (MIC)", "setting": "[2]; B. subtilis (ATCC 6633), 18–24 h, aerobic", "result": 3.12, "unit": "µM"}, {"measurement": "minimal inhibitory concentration (MIC)", "setting": "[3]; DSM 30054", "result": ">100", "unit": "µM"}, {"measurement": "minimal inhibitory concentration (MIC)", "setting": "[3]; E. cloacae (DSM 30054), 18–24 h, aerobic", "result": "> 100", "unit": "µM"}, {"measurement": "minimal inhibitory concentration (MIC)", "setting": "[4]; DSM 2570", "result": 25, "unit": "µM"}, {"measurement": "minimal inhibitory concentration (MIC)", "setting": "[4]; E. faecalis (DSM 2570), 18–24 h, micro-aerobic", "result": 25, "unit": "µM"}, {"measurement": "minimal inhibitory concentration (MIC)", "setting": "[5]", "result": ">100", "unit": "µM"}, {"measurement": "minimal inhibitory concentration (MIC)", "setting": "[6]; ATCC 8739", "result": 100, "unit": "µM"}, {"measurement": "minimal inhibitory concentration (MIC)", "setting": "[6]; E. coli (ATCC 8739), 18–24 h, aerobic", "result": 100, "unit": "µM"}, {"measurement": "minimal inhibitory concentration (MIC)", "setting": "[7]; ATCC 43504", "result": 3.12, "unit": "µM"}, {"measurement": "minimal inhibitory concentration (MIC)", "setting": "[7]; H. pylori (ATCC 43504), 18–24 h, micro-aerobic", "result": 3.12, "unit": "µM"}, {"measurement": "minimal inhibitory concentration (MIC)", "setting": "[8]; DSM 26371", "result": 100, "unit": "µM"}, {"measurement": "minimal inhibitory concentration (MIC)", "setting": "[8]; K. pneumoniae (DSM 26371), 18–24 h", "result": 100, "unit": "µM"}, {"measurement": "minimal inhibitory concentration (MIC)", "setting": "[9]; ATCC 9027", "result": ">100", "unit": "µM"}, {"measurement": "minimal inhibitory concentration (MIC)", "setting": "[9]; P. aeruginosa (ATCC 9027), 18–24 h, aerobic", "result": "> 100", "unit": "µM"}, {"measurement": "minimal inhibitory concentration (MIC)", "setting": "[10]; ATCC 6538", "result": 3.12, "unit": "µM"}, {"measurement": "minimal inhibitory concentration (MIC)", "setting": "[10]; S. aureus (ATCC 6538), 18–24 h, aerobic", "result": 3.12, "unit": "µM"}, {"measurement": "IC50", "setting": "[11]", "result": "15.1 ± 8.51", "unit": "µM"}, {"measurement": "IC50", "setting": "liver cancer cells HepG2", "result": "31.6 ± 1.56", "unit": "µM"}, {"measurement": "IC50", "setting": "lung cancer cells A549", "result": "14.5 ± 1.44", "unit": "µM"}, {"measurement": "IC50", "setting": "[12]", "result": "14.8 ± 7.35", "unit": "µM"}, {"measurement": "IC50", "setting": "[13]", "result": "22.4 ± 6.07", "unit": "µM"}, {"measurement": "IC50", "setting": "[14]", "result": "13 ± 1.99", "unit": "µM"}, {"measurement": "IC50", "setting": "skin cancer cells MNT-1", "result": "15.2 ± 0.8", "unit": "µM"}, {"measurement": "IC50", "setting": "human cancer cells", "result": "18.1 ± 6.68", "unit": "µM"}, {"measurement": "IC50", "setting": "[15]", "result": "37.2 ± 2.88", "unit": "µM"}, {"measurement": "hemolysis at 100 µM", "setting": "Hemolysis assay", "result": "102 ± 6.18", "unit": "%"}, {"measurement": "hemolytic activity (in words)", "setting": "human red blood cells", "result": "high hemolytic activity"}, {"measurement": "estimated HC50 (concentration causing 50% of hemolysis)", "setting": "human red blood cells; red cells of human, 1 h", "result": "43.66 ± 1.01", "unit": "µM"}, {"measurement": "stability at different temperatures", "setting": "[16]", "result": "considerable stability up to 60 °C; also recorded: higher stability up to 60 °C"}, {"measurement": "stability at different pH", "setting": "[17]", "result": "significantly stable at pH values up to 10 and unstable at high pH values of 12 and 14"}, {"measurement": "Pdi Values (polydispersity index)", "setting": "[18]; DLS", "result": 0.628}, {"measurement": "Z-Average", "setting": "[18]; DLS, room temperature", "result": 63.25, "unit": "nm·days"}, {"measurement": "Zeta Potential", "setting": "[18]; zetasizer", "result": "−34.1", "unit": "mV"}, {"measurement": "antibacterial activity (in words)", "setting": "H. pylori", "result": "active"}, {"measurement": "antibacterial activity (in words)", "setting": "[19]", "result": "active"}, {"measurement": "serum stability (in words)", "setting": "[20]", "result": "good serum stability"}]}
